This test concerns MDA-MB-231 breast cancer cells. As to the kind of experiment: Inhibition of IFN-gamma-dependent growth of MDA-MB-231 cells, MTT assay, 48 hours. The format is cell-based.
Where [1] appears, read: Table 1, MTT assay after 48 hours exposure, concentration causing 50% inhibition in cell growth, read-out: GI50, MDA-MB-231.

Structures are written as SMILES. Where two headings read alike, the source gives them in different places. Non-standard residues stand in square brackets, D forms with d. Residues, ends and D or L forms follow the SMILES beside them. *: point of attachment. Palmitoyl = CCCCCCCCCCCCCCCC(=O)*

Experimental: Cells were exposed to compounds for 48 hours and cell number was determined with the help of MTT assay.
Cells were exposed to IL10-HF-1 for 48 hours and cell number was determined with the help of MTT assay.
Peptides designed to mimic conserved regions of the receptor sequences were tested for the ability to inhibit IL10 and IFN-gamma signaling. Inhibition of IL10 signaling was tested in a mouse mast cell line MC/9. […] Abrogation of IFN-gamma signaling or STAT1 activation causes cell death in this cell line.

Consider `CCCCCCCCCCCCCCCC(=O)N[C@@H](Cc1ccccc1)C(=O)N[C@@H](Cc1ccc(O)cc1)C(=O)N[C@H](C(=O)N[C@@H](CCCCN)C(=O)N[C@@H](CCCCN)C(=O)N[C@H](C(=O)N[C@@H](CC(N)=O)C(=O)N1CCC[C@H]1C(=O)N[C@@H](CC(C)C)C(=O)N[C@@H](CCCCN)C(=O)N[C@@H](CCC(=O)O)C(=O)N[C@@H](CCCCN)C(=O)N[C@@H](CO)C(=O)N[C@H](C(=O)N[C@H](C(=O)N[C@@H](CC(C)C)C(=O)N1CCC[C@H]1C(=O)N[C@@H](CCCCN)C(=O)N[C@@H](CO)C(N)=O)[C@@H](C)CC)[C@@H](C)CC)[C@@H](C)CC)[C@@H](C)CC` [IFNGR1-1, ε-Pal-FYIKKINPLKEKSIILPKS-NH2] (Palmitoyl-FYIKKINPLKEKSIILPKS-NH2), for which the GI50 (48 h) was above 25000 nM.
Turning to `CCCCCCCCCCCCCCCC(=O)N1CCC[C@H]1C(=O)N[C@@H](CC(C)C)C(=O)N[C@@H](CCCCN)C(=O)N[C@@H](CCC(=O)O)C(=O)N[C@@H](CCCCN)C(=O)N[C@@H](CO)C(=O)N[C@H](C(=O)N[C@H](C(=O)N[C@@H](CC(C)C)C(=O)N1CCC[C@H]1C(=O)N[C@@H](CCCCN)C(=O)N[C@@H](CO)C(=O)N[C@@H](CC(C)C)C(=O)N[C@@H](CC(C)C)C(=O)N[C@@H](CO)C(=O)N[C@H](C(=O)N[C@H](C(=O)N[C@@H](CCCNC(=N)N)C(N)=O)C(C)C)C(C)C)[C@@H](C)CC)[C@@H](C)CC` [IFNGR1-3, ε-Pal-PLKEKSIILPKSLLSVVR-NH2] (Palmitoyl-PLKEKSIILPKSLLSVVR-NH2), under “48 h”, halving of growth (GI50) required 50 nM.
Compound `CCCCCCCCCCCCCCCC(=O)N[C@H](C(=O)N[C@@H](CC(C)C)C(=O)N1CCC[C@H]1C(=O)N[C@@H](CCCCN)C(=O)N[C@@H](CO)C(=O)N[C@@H](CC(C)C)C(=O)N[C@@H](CC(C)C)C(=O)N[C@@H](CO)C(=O)N[C@H](C(=O)N[C@H](C(=O)N[C@@H](CCCNC(=N)N)C(=O)N[C@@H](CO)C(=O)N[C@@H](C)C(=O)N[C@H](C(N)=O)[C@@H](C)O)C(C)C)C(C)C)[C@@H](C)CC` [IFNGR1-4, ε-Pal-ILPKSLLSVVRSAT-NH2] (Palmitoyl-ILPKSLLSVVRSAT-NH2) displayed a concentration for 50% growth inhibition (GI50) (48 h) of 2500 nM.
On to `CCCCCCCCCCCCCCCC(=O)NCCCC[C@H](N)C(=O)NCC(=O)N[C@@H](CCCCN)C(=O)N[C@@H](CCC(=O)O)C(=O)N[C@@H](CO)C(=O)N[C@@H](CC(C)C)C(=O)N[C@H](C(=O)NCC(=O)N[C@@H](Cc1ccc(O)cc1)C(=O)N[C@@H](CCCNC(=N)N)C(=O)N1CCC[C@H]1C(=O)N[C@H](C(N)=O)[C@@H](C)O)[C@@H](C)CC` [IFNGR1-6, ε-Pal-KGKESLIGYRPT-NH2] (H-K(Palmitoyl)GKESLIGYRPT-NH2; N-terminus assumed), for which it took 70 nM to inhibit growth (48 h) by half (GI50).
For the setting “48 h”, `CCCCCCCCCCCCCCCC(=O)NCCCC[C@H](N)C(=O)NCC(=O)N[C@@H](Cc1ccc(O)cc1)C(=O)N[C@@H](CC(=O)O)C(=O)N[C@@H](CCCCN)C(=O)N1CCC[C@H]1C(=O)N[C@@H](Cc1c[nH]cn1)C(=O)N[C@H](C(=O)N[C@@H](CC(C)C)C(=O)N[C@H](C(=O)N[C@@H](CC(=O)O)C(=O)N[C@@H](CC(C)C)C(=O)N[C@@H](CC(C)C)C(=O)N[C@H](C(=O)N[C@@H](CC(=O)O)C(N)=O)C(C)C)C(C)C)C(C)C` [IFNGR1-7, ε-Pal-KGYDKPHVLVDLLVD-NH2] (H-K(Palmitoyl)GYDKPHVLVDLLVD-NH2; N-terminus assumed) came in with a GI50 of 1000 nM.
`CCCCCCCCCCCCCCCC(=O)NCCCC[C@H](N)C(=O)N[C@@H](CO)C(=O)N[C@H](C(=O)N[C@@H](C)C(=O)N[C@@H](CC(C)C)C(=O)N[C@@H](CC(N)=O)C(=O)N[C@@H](CO)C(=O)N[C@@H](Cc1ccc(O)cc1)C(=O)N[C@@H](Cc1c[nH]cn1)C(=O)N[C@@H](CO)C(=O)N[C@@H](CCCNC(=N)N)C(=O)N[C@@H](CC(N)=O)C(N)=O)[C@@H](C)CC` [IFNGR1-8, ε-Pal-KSIALNSYHSRN-NH2] (H-K(Palmitoyl)SIALNSYHSRN-NH2; N-terminus assumed): growth (48 h) was halved (GI50) at 5000 ± 1000 nM.
In the case of `CCCCCCCCCCCCCCCC(=O)NCCCC[C@H](N)C(=O)NCC(=O)NCC(=O)N[C@@H](CCCCN)C(=O)N[C@@H](CCC(=O)O)C(=O)N[C@@H](CO)C(=O)N[C@@H](CC(C)C)C(=O)N[C@H](C(=O)NCC(=O)N[C@@H](Cc1ccc(O)cc1)C(=O)N[C@@H](CCCNC(=N)N)C(N)=O)[C@@H](C)CC` [IFNGR1-10, ε-Pal-KGGKESLIGYR-NH2] (H-K(Palmitoyl)GGKESLIGYR-NH2; N-terminus assumed), the GI50 (48 h) is 2500 nM.
`CCCCCCCCCCCCCCCC(=O)NCCCC[C@H](N)C(=O)NCC(=O)N[C@@H](CCCCN)C(=O)N[C@@H](CCC(=O)O)C(=O)N[C@@H](CO)C(=O)N[C@@H](CC(C)C)C(=O)N[C@H](C(=O)NCC(=O)N[C@@H](Cc1ccc(O)cc1)C(=O)N[C@@H](CCCNC(=N)N)C(N)=O)[C@@H](C)CC` [IFNGR1-11, ε-Pal-KGKESLIGYR-NH2] (H-K(Palmitoyl)GKESLIGYR-NH2; N-terminus assumed) registered a GI50 (48 h) of 2000 nM.
Compound `CCCCCCCCCCCCCCCC(=O)NCCCC[C@H](N)C(=O)NCC(=O)N[C@@H](Cc1ccc(O)cc1)C(=O)N[C@@H](CC(=O)O)C(=O)N[C@@H](CCCCN)C(=O)N1CCC[C@H]1C(=O)N[C@@H](Cc1c[nH]cn1)C(=O)N[C@H](C(=O)N[C@@H](CC(C)C)C(=O)N[C@H](C(N)=O)C(C)C)C(C)C` [IFNGR1-12, ε-Pal-KGYDKPHVLV-NH2] (H-K(Palmitoyl)GYDKPHVLV-NH2; N-terminus assumed) displayed a 50% growth inhibitory concentration (GI50) (48 h) of 600 nM.
The compound `CCCCCCCCCCCCCCCC(=O)NCCCC[C@H](N)C(=O)N[C@@H](CC(C)C)C(=O)N[C@@H](CC(N)=O)C(=O)N[C@@H](CO)C(=O)N[C@@H](Cc1ccc(O)cc1)C(=O)N[C@@H](Cc1c[nH]cn1)C(=O)N[C@@H](CO)C(=O)N[C@@H](CCCNC(=N)N)C(=O)N[C@@H](CC(N)=O)C(=O)NCC(=O)N[C@@H](CO)C(N)=O` [IFNGR1-13, ε-Pal-KLNSYHSRNGS-NH2] (H-K(Palmitoyl)LNSYHSRNGS-NH2; N-terminus assumed) registered a GI50 (48 h) of 4500 nM.
Take `CCCCCCCCCCCCCCCC(=O)NCCCC[C@H](N)C(=O)NCC(=O)N[C@@H](Cc1ccc(O)cc1)C(=O)N[C@@H](CC(=O)O)C(=O)N[C@@H](CCCCN)C(=O)N1CCC[C@H]1C(=O)N[C@@H](Cc1c[nH]cn1)C(=O)N[C@H](C(N)=O)C(C)C` [IFNGR1-15, ε-Pal-KGYDKPHV-NH2] (H-K(Palmitoyl)GYDKPHV-NH2; N-terminus assumed): for the setting “48 h”, the GI50 came to 1600 nM.
Take `CCCCCCCCCCCCCCCC(=O)NCCCC[C@H](N)C(=O)N[C@@H](Cc1ccccc1)C(=O)NCC(=O)N[C@@H](Cc1ccc(O)cc1)C(=O)N[C@@H](CC(=O)O)C(=O)N[C@@H](CCCCN)C(=O)N1CCC[C@H]1C(=O)N[C@@H](Cc1c[nH]cn1)C(=O)N[C@H](C(N)=O)C(C)C` [IFNGR1-16, ε-Pal-KFGYDKPHV-NH2] (H-K(Palmitoyl)FGYDKPHV-NH2; N-terminus assumed): the 50% growth inhibitory concentration (GI50) (Table 3, MDA-MB-231 breast cancer cell line growth, regions B, C, D of IFNGR1, read-out: GI50) was 2100 nM.
`CCCCCCCCCCCCCCCC(=O)NCCCC[C@H](N)C(=O)N[C@@H](CCCCN)C(=O)N[C@@H](Cc1ccc(O)cc1)C(=O)N[C@@H](CCC(N)=O)C(=O)N[C@@H](CO)C(=O)N[C@@H](CCCNC(=N)N)C(=O)N[C@H](C(=O)N[C@@H](CCCCN)C(=O)N[C@@H](Cc1ccc(O)cc1)C(=O)N[C@@H](Cc1c[nH]c2ccccc12)C(=O)N[C@@H](Cc1ccccc1)C(=O)N[C@@H](CCC(N)=O)C(=O)N[C@@H](C)C(=O)N1CCC[C@H]1C(=O)N1CCC[C@H]1C(=O)N[C@@H](CC(N)=O)C(=O)N[C@H](C(=O)N1CCC[C@H]1C(=O)O)[C@@H](C)CC)C(C)C` [IFNGR2-1, ε-Pal-KKYQSRVKYWFQAPPNIP] (H-K(Palmitoyl)KYQSRVKYWFQAPPNIP-OH; N-terminus and C-terminus assumed) returned a GI50 (48 h) of 5000 nM.
With `CCCCCCCCCCCCCCCC(=O)NCCCC[C@@H](NC(=O)[C@@H](CCCCN)NC(=O)[C@@H](CC(C)C)NC(=O)[C@H]1CCCN1C(=O)[C@@H](CO)NC(=O)[C@H](NC(=O)[C@@H](CC(C)C)NC(=O)[C@@H](CC(C)C)NC(=O)[C@@H](Cc1ccccc1)NC(=O)[C@@H](CCCCN)NC(=O)[C@@H](CCCCN)NC(=O)[C@H]1CCCN1C(=O)[C@@H](CO)NC(C)=O)C(C)C)C(N)=O` [IL10R1-9, Ac-SPKKFLLVSPLKK-ε-Pal] (Ac-[dS][dP][dK][dK][dF][dL][dL][dV][dS][dP][dL][dK][dK](Palmitoyl)-NH2; C-terminus assumed), the 50% growth inhibitory concentration (GI50) under setting [1] worked out at 1000 nM.
As for `CCCCCCCCCCCCCCCC(=O)NCCCC[C@@H](NC(=O)[C@@H](CCCCN)NC(=O)[C@@H](CC(C)C)NC(=O)[C@H]1CCCN1C(=O)[C@@H](CO)NC(=O)[C@H](NC(=O)[C@@H](CC(C)C)NC(=O)[C@@H](CC(C)C)NC(=O)[C@@H](Cc1ccccc1)NC(=O)[C@@H](CCCCN)NC(=O)[C@@H](CCCCN)NC(C)=O)C(C)C)C(N)=O` [IL10R1-10, Ac-KKFLLVSPLKK-ε-Pal] (Ac-[dK][dK][dF][dL][dL][dV][dS][dP][dL][dK][dK](Palmitoyl)-NH2; C-terminus assumed), the GI50 under setting [1] is 1000 nM.
Take `CCCCCCCCCCCCCCCC(=O)NCCCC[C@@H](NC(=O)[C@@H](CCCCN)NC(=O)[C@@H](CC(C)C)NC(=O)[C@H]1CCCN1C(=O)[C@@H](CO)NC(=O)[C@H](NC(=O)[C@@H](CC(C)C)NC(=O)[C@@H](CC(C)C)NC(=O)[C@@H](Cc1ccccc1)NC(=O)[C@@H](CCCCN)NC(=O)[C@@H](CCCCN)NC(=O)[C@H]1CCCN1C(C)=O)C(C)C)C(N)=O` [IL10R1-11, Ac-PKKFLLVSPLKK-ε-Pal] (Ac-[dP][dK][dK][dF][dL][dL][dV][dS][dP][dL][dK][dK](Palmitoyl)-NH2; C-terminus assumed): the 50% growth inhibitory concentration (GI50) under setting [1] was determined as 1000 nM.

Source of the values: patent US9475839B2, “Peptide-based inhibitor of interleukin-10 or interferon-gamma signaling” (THE UNITED STATES OF AMERICA, AS REPRESENTED BY THE …, priority 2010, dated 2016).
